Data on one compound can be found in ChEMBL document CHEMBL1134203, “Discovery of potent and selective succinyl hydroxamate inhibitors of matrix metalloprotease-3 (stromelysin-1)” (Bioorg Med Chem Lett, 2001).

For test [1], the target named is Matrix metalloproteinase-14 (Homo sapiens, UniProt P50281).
Test [2] has as its target Matrix metalloproteinase-9 (Homo sapiens, UniProt P14780).

Chain of Matrix metalloproteinase-9 (P14780 whole entry): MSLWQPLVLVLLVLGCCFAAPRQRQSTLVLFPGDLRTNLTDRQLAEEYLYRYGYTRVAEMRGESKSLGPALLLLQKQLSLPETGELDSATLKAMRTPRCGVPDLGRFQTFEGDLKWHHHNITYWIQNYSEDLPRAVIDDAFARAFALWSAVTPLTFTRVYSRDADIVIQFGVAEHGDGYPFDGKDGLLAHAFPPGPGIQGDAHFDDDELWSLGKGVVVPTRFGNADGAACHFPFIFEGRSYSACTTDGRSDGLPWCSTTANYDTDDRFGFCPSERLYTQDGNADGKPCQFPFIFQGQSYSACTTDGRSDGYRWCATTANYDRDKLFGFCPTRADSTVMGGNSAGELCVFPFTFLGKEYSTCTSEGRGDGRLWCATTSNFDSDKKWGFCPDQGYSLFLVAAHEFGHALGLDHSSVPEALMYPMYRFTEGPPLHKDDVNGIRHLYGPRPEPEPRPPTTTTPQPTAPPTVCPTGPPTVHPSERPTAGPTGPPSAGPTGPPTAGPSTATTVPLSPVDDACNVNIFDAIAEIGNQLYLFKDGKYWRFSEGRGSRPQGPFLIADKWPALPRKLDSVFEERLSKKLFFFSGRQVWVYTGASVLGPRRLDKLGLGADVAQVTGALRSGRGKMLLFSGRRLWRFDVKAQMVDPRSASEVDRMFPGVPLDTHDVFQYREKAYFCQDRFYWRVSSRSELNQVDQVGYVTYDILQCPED

As for `Cc1cc(CCC[C@H](CC(=O)NO)C(=O)N[C@H](C(=O)N[C@H](C)c2ccccc2)C(C)(C)C)ccc1-c1ccccc1`, the IC50 stood at 1.9 µM in test [1] and 0.84 µM in test [2].

Usually IC50 stands for the midpoint of a concentration-inhibition curve. A high value points to weaker potency.
